# Reference: patent US20220267260A1, “COMPOUNDS CONTAINING A SULFONIC GROUP AS KAT INHIBITORS” (Epizyme, Inc., priority 2016, published 2022)
# Structures can show the parent of a compound that is named as a salt.
# Assays:
# KAT5 = molecular target: T1, KAT5 (Homo sapiens, UniProt Q92993); test: KAT5 enzyme inhibition assay (SAMDI mass spectrometry); type: biochemical; settings: His-TEV-FL KAT5-Flag enzyme construct
# T1 construct: His-TEV tag (N, cleaved yes); made in house
# KAT6A = molecular target: T2, KAT6A (Homo sapiens, UniProt Q92794); test: KAT6A enzyme inhibition assay (SAMDI mass spectrometry); type: biochemical; settings: His-TEV-KAT6A 501-784 enzyme construct
# T2 construct: His-TEV tag (N, cleaved yes); made in house
# T2 sequence (Q92794 with tags, fused parts or gaps): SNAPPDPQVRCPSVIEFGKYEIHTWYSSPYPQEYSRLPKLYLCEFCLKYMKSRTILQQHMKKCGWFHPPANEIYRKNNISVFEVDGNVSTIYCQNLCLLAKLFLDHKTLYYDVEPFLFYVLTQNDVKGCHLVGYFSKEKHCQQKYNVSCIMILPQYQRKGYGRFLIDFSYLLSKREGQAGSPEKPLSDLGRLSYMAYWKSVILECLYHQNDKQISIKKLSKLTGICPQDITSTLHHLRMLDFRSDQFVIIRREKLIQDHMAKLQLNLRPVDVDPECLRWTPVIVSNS
# T1 sequence (Q92993 with tags, fused parts or gaps): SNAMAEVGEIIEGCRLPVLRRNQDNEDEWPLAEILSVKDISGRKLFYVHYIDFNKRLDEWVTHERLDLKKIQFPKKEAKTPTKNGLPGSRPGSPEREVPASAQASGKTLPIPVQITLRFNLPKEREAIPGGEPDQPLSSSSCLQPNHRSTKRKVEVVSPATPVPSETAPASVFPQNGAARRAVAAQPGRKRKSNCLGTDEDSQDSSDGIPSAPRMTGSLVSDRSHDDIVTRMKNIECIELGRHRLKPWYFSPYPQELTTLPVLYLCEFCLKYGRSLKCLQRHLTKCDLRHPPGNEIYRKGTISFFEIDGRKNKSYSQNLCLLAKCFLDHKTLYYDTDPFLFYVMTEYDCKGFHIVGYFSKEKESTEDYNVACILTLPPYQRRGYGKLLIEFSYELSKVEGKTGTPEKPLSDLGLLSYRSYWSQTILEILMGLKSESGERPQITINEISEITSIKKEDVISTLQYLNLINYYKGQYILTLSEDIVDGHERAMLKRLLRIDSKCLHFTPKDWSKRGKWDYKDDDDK
Structure (SMILES),IC50 (KAT5),IC50 (KAT6A)
COCCN1CC(S(=O)(=O)NNC(=O)c2cc(-c3ccccc3)cc(C)c2F)C1 [Compound I-43],50 to 100 µM,10 to 50 µM
O=C(NNS(=O)(=O)C1CCCCC1)c1cc(-c2ccccc2)cc2[nH]cnc12 [Compound I-375],50 to 100 µM,50 to 100 µM
Cc1cc(-c2cccc(OCCN(C)C)c2)cc(C(=O)NNS(=O)(=O)c2ccccc2)c1F [Compound I-386],> 100 µM,10 to 50 µM
Cc1cc(-c2cccc(F)c2)cc(C(=O)NNS(=O)(=O)CC2CCCNC2)c1F (stereo not shown) [Compound I-278],50 to 100 µM,> 100 µM
O=C(NNS(=O)(=O)C1CCOCC1)c1cc(CN2CCOCC2)cc(Cl)c1F [Compound I-448],> 100 µM,> 100 µM
COCCOc1cccc(-c2cc(C)c(F)c(C(=O)NNS(=O)(=O)c3ccccc3)c2)c1 [Compound I-279],10 to 50 µM,≤ 10 µM
O=C(NNS(=O)(=O)C1CCCCC1)c1cc(-c2cccc(F)c2)cc(Cl)c1F [Compound I-395],≤ 10 µM,≤ 10 µM
CNCCC(=O)N1CCCC(CS(=O)(=O)NNC(=O)c2cc(-c3ccccc3)cc(C)c2F)C1 (stereo not shown) [Compound I-333],10 to 50 µM,10 to 50 µM
Cc1cc(-c2ccccc2)cc(C(=O)NNS(=O)(=O)C2CCN(Cc3ccc(Cl)cc3)C2)c1F (stereo not shown) [Compound I-24],10 to 50 µM,10 to 50 µM
CC(C)(C)OC(=O)N1CCC(S(=O)(=O)NNC(=O)c2cc(Cl)cc(Cl)c2F)CC1 [Compound I-405],10 to 50 µM,> 100 µM
COc1cccc(-c2cc(C)c(F)c(C(=O)NNS(=O)(=O)C3CCCCC3)c2)c1 [Compound I-348],10 to 50 µM,10 to 50 µM
Cc1cc(-c2ccccc2)cc(C(=O)NNS(=O)(=O)CC2CCN(C)CC2)c1F [Compound I-349],10 to 50 µM,10 to 50 µM
"Cc1cc(-c2ccccc2)cc(C(=O)NNS(=O)(=O)C2CNC2)c1F [Compound I-120, N′-(4-Fluoro-5-methyl-[1,1′-biphenyl]-3-carbonyl)azetidine-3-sulfonohydrazide hydrochloride]",> 100 µM,> 100 µM
Cc1cc(-c2cccc(F)c2Cl)cc(C(=O)NNS(=O)(=O)C2CCCCC2)c1F [Compound I-399],50 to 100 µM,50 to 100 µM
Cc1c(-c2ccccc2)ccc(F)c1C(=O)NNS(=O)(=O)C1CCCC1 [Compound I-249],> 100 µM,> 100 µM
Cc1cnc(CNC(=O)c2cc(-c3ccccc3)cc(C)c2F)[nH]1 [Compound I-295],> 100 µM,> 100 µM
O=C(NNS(=O)(=O)c1ccccc1)c1c(F)cccc1-c1ccccc1 [Compound I-354],> 100 µM,> 100 µM
Cc1cccc(F)c1C(=O)NNS(=O)(=O)c1ccccc1 [Compound I-135],> 100 µM,> 100 µM
Cc1cc(-c2ccccc2)cc(C(=O)NNS(=O)(=O)C(C)C2CCN(C(=O)OC(C)(C)C)CC2)c1F (stereo not shown) [Compound I-307],10 to 50 µM,≤ 10 µM
O=C(NNS(=O)(=O)c1ccccc1)c1ccc(F)cc1 [Compound I-193],> 100 µM,50 to 100 µM
Cc1cc(-c2ccccc2)cc(C(=O)NNS(=O)(=O)c2ccc(C(N)=O)cc2)c1F [Compound I-239],≤ 10 µM,≤ 10 µM
CCc1cc(F)cc(-c2cc(Cl)c(F)c(C(=O)NNS(=O)(=O)C3CCCCC3)c2)c1 [Compound I-498],10 to 50 µM,10 to 50 µM

Structure (SMILES),IC50 (KAT5),IC50 (KAT6A)
COc1ccccc1S(=O)(=O)NNC(=O)c1c(F)ccc(-c2ccccc2)c1C [Compound I-237],> 100 µM,50 to 100 µM
Cc1cc(-c2ccccc2)cc(C(=O)NNS(=O)(=O)C2CCNCC2)c1F [Compound I-89],> 100 µM,> 100 µM
Cc1cc(-c2ccccc2)cc(C(=O)NS(=O)(=O)c2ccccc2)c1F [Compound I-168],50 to 100 µM,50 to 100 µM
Cc1cc(-c2ccccc2)cc(C(=O)NNS(=O)(=O)C2CCN(CCc3ccccc3)C2)c1F (stereo not shown) [Compound I-36],10 to 50 µM,10 to 50 µM
Cc1cc(-c2ccccc2)cc(C(=O)NNS(=O)(=O)C2CN(C(=O)C(C)C)C2)c1F [Compound I-114],> 100 µM,10 to 50 µM
O=C(NNS(=O)(=O)C1CCNCC1)c1cc(Cl)cc(Cl)c1F [Compound I-406],> 100 µM,> 100 µM
Cc1cc(-c2cccc(F)c2)cc(C(=O)NNS(=O)(=O)CC2CN(C(=O)OC(C)(C)C)CCO2)c1F (stereo not shown) [Compound I-425],≤ 10 µM,≤ 10 µM
CC(=O)N1CCC(CS(=O)(=O)NNC(=O)c2cc(-c3ccccc3)cc(C)c2F)CC1 [Compound I-341],≤ 10 µM,≤ 10 µM
CNC(=O)c1ccc(S(=O)(=O)NNC(=O)c2cc(-c3ccccc3)cc(C)c2F)cc1 [Compound I-244],10 to 50 µM,≤ 10 µM
Cn1c(NNS(=O)(=O)c2ccccc2)nc2ccccc21 [Compound I-13],> 100 µM,> 100 µM
Cc1cc(-c2cccc(Cl)c2F)cc(C(=O)NNS(=O)(=O)C2CCCCC2)c1F [Compound I-376],10 to 50 µM,10 to 50 µM
O=C(NNS(=O)(=O)c1ccccc1)c1ncccc1F [Compound I-252],> 100 µM,50 to 100 µM
COc1cc(F)cc(-c2cc(Cl)c(F)c(C(=O)NNS(=O)(=O)C3CCCCC3)c2)c1 [Compound I-486],10 to 50 µM,10 to 50 µM
Cc1cc(-c2ccccc2)cc(C(=O)NNS(=O)(=O)c2ccc(O)cc2)c1F [Compound I-211],≤ 10 µM,≤ 10 µM
O=C(NC1CCC1)c1cc(Cl)c(F)c(C(=O)NNS(=O)(=O)C2CCCCC2)c1 [Compound I-473],> 100 µM,> 100 µM
Cc1cc(-c2ccccc2)cc(C(=O)N[C@@H](C#N)C2CCCCC2)c1F [Compound I-257],> 100 µM,> 100 µM
Cc1cc(-c2ccccc2)cc(C(=O)NNS(=O)(=O)c2ccc(CO)cc2)c1F [Compound I-147],10 to 50 µM,≤ 10 µM
O=C(NNS(=O)(=O)C1CCCCC1)c1cc(-c2ccccc2F)cc(Cl)c1F [Compound I-390],≤ 10 µM,≤ 10 µM
O=C(NNS(=O)(=O)CC1CCCCC1)c1cc(-c2c[nH]cn2)ccc1F [Compound I-495],10 to 50 µM,10 to 50 µM
CNC(=O)c1cccc(S(=O)(=O)NNC(=O)c2cc(-c3ccccc3)cc(C)c2F)c1 [Compound I-219],≤ 10 µM,≤ 10 µM
O=S(=O)(NNc1n[nH]c2c(F)cccc12)c1ccccc1 [Compound I-48],> 100 µM,> 100 µM
Cc1cc(-c2ccccc2)cc(C(=O)NN(C)S(=O)(=O)c2ccccc2)c1F [Compound I-242],> 100 µM,10 to 50 µM

Structure (SMILES),IC50 (KAT5),IC50 (KAT6A)
Cc1ccc(-c2ccccc2)c(C)c1C(=O)NNS(=O)(=O)c1ccccc1 [Compound I-200],> 100 µM,> 100 µM
O=C(NNS(=O)(=O)C1CCCCC1)c1nc(-c2ccccc2)cc(Cl)c1F [Compound I-479],> 100 µM,50 to 100 µM
Cc1cc(-c2ccccc2)cc(C(=O)NNS(=O)(=O)Cc2ccc(Cl)cc2)c1F [Compound I-6],≤ 10 µM,≤ 10 µM
Cc1cc(-c2ccccc2)cc(C(=O)NNS(=O)(=O)C2CN(Cc3ccccc3)C2)c1F [Compound I-61],> 100 µM,10 to 50 µM
Cc1cccc(-c2cc(Cl)c(F)c(C(=O)NNS(=O)(=O)CC3CCCN(C(=O)C4CCC4)C3)c2)c1 (stereo not shown) [Compound I-512],≤ 10 µM,> 100 µM
Cc1c(-c2ccccc2)ccc(Cl)c1C(=O)NNS(=O)(=O)C1CCCCC1 [Compound I-308],50 to 100 µM,> 100 µM
Cc1cc(-c2ccccc2Cl)cc(C(=O)NNS(=O)(=O)C2CCCCC2)c1F [Compound I-318],50 to 100 µM,50 to 100 µM
O=C(NNS(=O)(=O)c1ccccc1)c1ccccn1 [Compound I-194],> 100 µM,> 100 µM
O=C(NNS(=O)(=O)C1CCCCC1)c1ccccc1F [Compound I-116],> 100 µM,> 100 µM
CC(=O)N1CCOC(CS(=O)(=O)NNC(=O)c2cc(-c3cccc(F)c3)cc(C)c2F)C1 (stereo not shown) [Compound I-429],≤ 10 µM,≤ 10 µM
Cn1cnc2cc(-c3ccccc3)cc(C(=O)NNS(=O)(=O)C3CCCCC3)c21 [Compound I-441],> 100 µM,> 100 µM
COc1ccc(S(=O)(=O)NNC(=O)c2c(F)ccc(-c3ccccc3)c2C)cc1 [Compound I-186],50 to 100 µM,10 to 50 µM
Cc1cc(F)c(-c2ccccc2)cc1C(=O)NNS(=O)(=O)c1ccccc1 [Compound I-123],> 100 µM,> 100 µM
CCc1cc(Cl)c(F)c(C(=O)NNS(=O)(=O)C2CCOCC2)c1 [Compound I-422],> 100 µM,> 100 µM
Cc1c(C(=O)NNS(=O)(=O)c2cccc(Cl)c2)cnn1-c1ccccc1 [Compound I-316],> 100 µM,> 100 µM
"Cc1cc(-c2ccccc2)cc(C(=O)NNS(=O)(=O)C2CCN(C(=O)OC(C)(C)C)C2)c1F (stereo not shown) [Compound I-118, tert-Butyl 3-((2-(4-fluoro-5-methyl-[1,1′-biphenyl]-3-carbonyl)hydrazinyl)sulfonyl)pyrrolidine-1-carboxylate]",10 to 50 µM,≤ 10 µM
COc1cccc(-c2cc(C)c(F)c(C(=O)NNS(=O)(=O)CC3CCCCC3)c2)c1 [Compound I-298],≤ 10 µM,10 to 50 µM
Cc1c(-c2ccccc2)ccc(F)c1C(=O)NNS(=O)(=O)Cc1ccccc1 [Compound I-361],50 to 100 µM,> 100 µM
Cc1cc(-c2ccccc2F)cc(C(=O)NNS(=O)(=O)C2CCCCC2)c1F [Compound I-321],≤ 10 µM,10 to 50 µM
Cc1cc(-c2ccccc2)cc(C(=O)NCc2cc[nH]n2)c1F [Compound I-173],> 100 µM,> 100 µM
CNC(=O)CCNC(=O)Cn1nc(C)c(F)c1C(=O)NNS(=O)(=O)C1CCCCC1 [Compound I-505],> 100 µM,> 100 µM
